Common to all, as to assay type: biochemical
Assay [1] has as its system LPS-induced GTPase activity in membranes isolated from RAW 264.7 cells. The assay can be described thus: GTPase assay: effect of compounds on LPS-stimulated GTPase activity in macrophage membranes (release of 32Pi from γ-32P-GTP). The conditions noted are these: for relative abilities of purines to stimulate LPS-enhanced GTPase: dose-response studies, rank order; for sensitivity of LPS-stimulated GTPase activity to inhibitor: high concentrations of inhibitor, 0.1 mM ATP and 0.2 mM AMPPNP. The source says:
(§1) We sought to directly evaluate the influence of LPS on possible G-protein function by examining agonist-enhanced GTPase activity, which is a hallmark of G-protein action. Moreover, because macrophages are one of the key cell types in the release of toxic mediators following an LPS challenge, we first assessed the capacity of LPS to influence GTPase activity in membranes isolated from RAW 264.7 cells, which is a highly LPS-responsive macrophage cell line. In these studies, GTPase activity was measured using a standard assay. The activity was determined using 2 µM γ-^32P-GTP in the presence of 0.1 mM ATP and 0.2 mM of the non-hydrolyzable ATP analog, AMPPNP, in order to minimize nonspecific nucleotidase activity in the membrane preparations.
The reaction is initiated by the addition of the γ-^32P-GTP and the mixture incubated at 30-37°C for 15 to 30 minutes. The reaction is terminated by the addition of 500µl of 5% trichloroacetic acid and 500µl of 0.1gm/ml acid-activated charcoal in 5% trichloroacetic acid. The samples are centrifuged at 14,000xg for 10 minutes, and a 550µl aliquot of the supernatant is removed for scintillation counting. The supernatant will contain the released ^32Pi. The extent of GTPase inhibition is measured by the decrease in the amount of ^32Pi released from γ-^32P-GTP. Appropriate controls include mixtures with one of the following omitted: (i) test compound, (ii) endotoxin, and (iii) ATP, ADP or AMPPNP.
The membranes are resuspended in 20 mM HEPES (pH 7.4), 1 mM dithiothreitol, 1 mM EDTA and 10 µg leupeptin/ml. Aliquots are stored at -70°C until assayed.

Assay [2] has the same test system. Description: GTPase assay (release of 32Pi from γ-32P-GTP), LPS-stimulated activity. The following applies: for LPS-stimulated GTPase activity when adenine nucleotide included in the incubation: compared with no added adenine nucleotides.
Source text: as §1, with “preparations. In the preferred practice of the present invention, the ability of a candidate compound to inhibit LPS-induced GTPase is assessed by measuring the release of ^32Pi from γ-^32P-GTP.” for “preparations.”
(§2) Under these conditions, GTPase activation was evident at 100 µg LPS/ml (roughly 6 µM assuming an average MW ∼ 17,000 kDa), and the maximal effect was seen by 300 µg/ml LPS. (2) To show adenosine mucleotide synergism with LPS-stimulated GTPase activity, either 10µM ATP or 30µM ADP replace the 0.1 mM ATP and 0.2 mM AMPPNP of the standard assay described by Cassel et al. and Neer et al.
(§3) In the preferred assay, a candidate compound (.001 - 1000 µM) is dissolved or suspended in 100µl of a reaction buffer containing 20mM HEPES (pH 7.4), 0.01mM ATP or ADP, membranes isolated from RAW 264.7 cells, 2µM γ-^32P-GTP (3-9 X 10cpm/pmol), 5mM MgCl2, 18µM LPS (based on an estimated MW of 17,000 kDa for E. coli 0111:B4 endotoxin), and 250 mM ammonium sulfate. The reaction is initiated by the addition of the γ-^32P-GTP and the mixture incubated at 30-37°C for 15 to 30 minutes. The reaction is terminated by the addition of 500µl of 5% trichloroacetic acid and 500µl of 0.1gm/ml acid-activated charcoal in 5% trichloroacetic acid. The samples are centrifuged at 14,000xg for 10 minutes, and a 550µl aliquot of the supernatant is removed for scintillation counting. The supernatant will contain the released ^32Pi. The extent of GTPase inhibition is measured by the decrease in the amount of ^32Pi released from γ-^32P-GTP. Appropriate controls include mixtures with one of the following omitted: (i) test compound, (ii) endotoxin, and (iii) ATP, ADP or AMPPNP.
(§4) The macrophage-like cell line RAW 264.7 is cultured as described using RPMI 1640 medium supplemented with 10% fetal calf serum (FCS) containing < 0.1 ng/ml LPS. The membranes are resuspended in 20 mM HEPES (pH 7.4), 1 mM dithiothreitol, 1 mM EDTA and 10 µg leupeptin/ml. Aliquots are stored at -70°C until assayed.

Assay [3] relates to GTPase activity in membranes isolated from a macrophage (RAW 264.7) cell line. The assay can be described thus: GTPase assay: basal or agonist-stimulated GTPase activity in macrophage membranes.
Source text: as §1, with “preparations. In the preferred practice of the present invention, the ability of a candidate compound to inhibit LPS-induced GTPase is assessed by measuring the release of ^32Pi from γ-^32P-GTP.” for “preparations.”
We first determined the optimal LPS concentration for GTPase stimulation. In all experiments, the LPS dose response curve was quite steep, and with the highest activity occurring around 200-300 µg LPS/ml.
as §2, §3, §4
To assess whether the LPS/ATP-enhanced GTPase is a "low Km" form, which would be expected for a variety of large and small MW G-proteins, as well as for various GAP and ARF-like proteins, as opposed to a "high Km" form, such as a phosphatase, we assayed the GTPase activity using 0.2 and 50 µM GTP essentially as described previously. […] The LPS and ATP stimulated a low Km GTPase activity by ∼30% and 70%, respectively, when added individually. This stimulation of low Km activity was slightly greater than that estimated using the standard assay conditions. […] The LPS stimulation of GTPase activity is enhanced by adenine nucleotides.

Entries after “also recorded” stand apart in the source; their conditions may differ. Like-named read-outs stand apart in the source and are kept apart here.

On to `Nc1ncnc2c1ncn2[C@@H]1O[C@H](COP(=O)(O)OP(=O)(O)O)[C@@H](O)[C@H]1O` [ADP], for which, in assay [1], the “stimulation (potentiation) of LPS-stimulated GTPase activity” value is “potentiated; also recorded: pronounced increase in LPS-stimulated GTPase activity” and the “relative abilities of purines to stimulate LPS-enhanced GTPase” value (“relative abilities of purines” for short) was “ATP> ATPγS> ADP> AMPPNP>> β,γ methylene ATP> 2-MeSATP”. The “LPS-stimulated GTPase activity when adenine nucleotide included in the incubation” value in assay [2] was “pronounced increase”.
On the same counts, the results for `Nc1ncnc2c1ncn2[C@@H]1O[C@H](COP(=O)(O)OP(=O)(O)NP(=O)(O)O)[C@@H](O)[C@H]1O` [AMPPNP] are “pronounced increase in LPS-stimulated GTPase activity”, “ATP> ATPγS> ADP> AMPPNP>> β,γ methylene ATP> 2-MeSATP” and “pronounced increase”.
With `Nc1ncnc2c1ncn2[C@@H]1O[C@H](COP(=O)(O)O)[C@@H](O)[C@H]1O` [AMP], the “stimulation of LPS-enhanced GTPase activity” value in assay [1] (at 100 µM) is “ineffective; also recorded: did not synergistically increase”.
Turning to `Nc1ncnc2c1ncn2[C@@H]1O[C@H](COP(=O)(O)OP(=O)(O)OP(=O)(O)O)[C@@H](O)[C@H]1O` [ATP], in assay [1], the “stimulation (potentiation) of LPS-stimulated GTPase activity” value is “potentiated; also recorded: pronounced increase in LPS-stimulated GTPase activity” and the “relative abilities of purines” value is “ATP> ATPγS> ADP> AMPPNP>> β,γ methylene ATP> 2-MeSATP”. The “ATP concentration of striking synergistic stimulation of GTPase activity” value in assay [1] (ATP and LPS added together, biphasic) fell in the range of 1 to 10 µM. For the same molecule, the “increase in activity of the GTPase” value in assay [1] (ATP in the presence of LPS) was “three-fold”. The “stimulation of LPS-enhanced GTPase activity” value in assay [1] (at 1 µM) is listed as “active”. Besides, in assay [3] (ATP alone, no LPS, biphasic stimulation), the “ATP concentration of maximum stimulation of GTPase activity” value lay within 1 to 10 µM. In addition, in assay [3] (LPS plus ATP), the “combined effects of LPS and ATP: stimulation calculated for the low Km activity” value is given as 228 % of basal activity. Also, in assay [3] (LPS plus ATP, 2 µM GTP, 0.1 mM ATP, 0.2 mM AMPPNP), the “combined effects of LPS and ATP: stimulation measured using standard assay conditions” value is given as 208 % of basal activity. In addition, in assay [3] (added individually, ATP 10 µM), the “stimulation of low Km GTPase activity” value stood at 70%. Besides, the “LPS-stimulated GTPase activity when adenine nucleotide included in the incubation” value in assay [2] is listed as “pronounced increase”.
For the molecule `Nc1ncnc2c1ncn2[C@@H]1O[C@H](COP(=O)(O)OP(=O)(O)OP(O)(O)=S)[C@@H](O)[C@H]1O` [ATPγS], the “relative abilities of purines” value in assay [1] is “ATP> ATPγS> ADP> AMPPNP>> β,γ methylene ATP> 2-MeSATP”.
With `CC(C)Cn1c(=O)n(C)c(=O)c2[nH]cnc21` [IBMX], the “inhibition of LPS-stimulated GTPase activity” value (from here on “inhibition”) in assay [1] is given as “did not alter the LPS activation of the GTPase”. Besides, the “stimulation of LPS-enhanced GTPase activity” value in assay [1] (at 100 µM) is on record as “did not synergistically increase”. Also, the “effect on the LPS activation of the GTPase” value in assay [2] (P1 purinoreceptor antagonist) is “did not alter”.
As to `CCN1C(=O)C=CC1=O` [N-ethyl-maleimide], the “inhibition” value is on record as “not antagonized” in assay [1] and “did not block” in assay [1] (in the presence of ADP).
Turning to `NC(=O)c1ccc[n+]([C@@H]2O[C@H](COP(=O)([O-])OP(=O)(O)OC[C@H]3O[C@@H](n4cnc5c(N)ncnc54)[C@H](O)[C@@H]3O)[C@@H](O)[C@H]2O)c1` [NAD], the “stimulation of LPS-enhanced GTPase activity” value in assay [1] (at 100 µM) was “did not synergistically increase”.
Same read-out and setting: in the case of `O=c1ccn([C@@H]2O[C@H](COP(=O)(O)OP(=O)(O)OP(=O)(O)O)[C@@H](O)[C@H]2O)c(=O)[nH]1` [UTP] it was “did not synergistically increase”.
`Nc1ncnc2c1ncn2[C@@H]1O[C@H](CO)[C@@H](O)[C@H]1O` [adenosine]: in assay [1] (at 100 µM), the “stimulation of LPS-enhanced GTPase activity” value was “ineffective; also recorded: did not synergistically increase”.
For the molecule `CO/C1=C\C(C)=C\[C@@H](C)[C@@H](O)[C@@H](C)C/C(C)=C/C=C/[C@H](OC)[C@@H]([C@@H](C)[C@@H](O)[C@H](C)[C@@]2(O)C[C@@H](O)[C@H](C)[C@@H](C(C)C)O2)OC1=O` [bafilomycin], the “inhibition” value in assay [1] is reported as “not antagonized”; in assay [1] (in the presence of ADP), “did not block”.
`C[C@@H]1O[C@@H](O[C@H]2C[C@@H](O)[C@]3(CO)[C@H]4[C@H](O)C[C@]5(C)[C@@H](C6=CC(=O)OC6)CC[C@]5(O)[C@@H]4CC[C@]3(O)C2)[C@H](O)[C@H](O)[C@H]1O` [ouabain]: in assay [1], the “inhibition” value is reported as “not antagonized” and the “sensitivity of LPS-stimulated GTPase activity to inhibitor” value is “insensitivity”. The “inhibition” value in assay [1] (in the presence of ADP) is reported as “did not block”.
Regarding `O=[N+]([O-])c1ccc(OP(=O)(O)O)cc1` [p-nitrophenyl-phosphate], in assay [1], the “inhibition” value was “not antagonized” and the “sensitivity of LPS-stimulated GTPase activity to inhibitor” value is on record as “insensitivity”.
`[Na+].[Na+].[Na+].[O]=[V]([O-])([O-])[O-]` [sodium orthovanadate]: the “inhibition” value in assay [1] was “did block LPS activation”.
On to `Cn1c(=O)c2[nH]cnc2n(C)c1=O` [theophylline], for which the “stimulation of LPS-enhanced GTPase activity” value in assay [1] (at 100 µM) was “did not synergistically increase”.
With `Nc1ncnc2c1ncn2[C@@H]1O[C@H](COP(=O)(O)OP(=O)(O)CP(=O)(O)O)[C@@H](O)[C@H]1O` [β,γ methylene ATP], the “relative abilities of purines” value in assay [1] was “ATP> ATPγS> ADP> AMPPNP>> β,γ methylene ATP> 2-MeSATP”.
On to Triton X-100, for which the “inhibition” value in assay [1] is “did not substantially interfere”. In assay [3] (no LPS), the “effect on basal GTPase activity” value is on record as “did reduce basal GTPase activity”.
On the same counts, the results for phosphatidic acid are “nor inhibit LPS-stimulated GTPase activity” and “did not stimulate basal GTPase activity”.
The matching figures for phosphatidylcholine: “nor inhibit LPS-stimulated GTPase activity” and “did not stimulate basal GTPase activity”.
The matching figures for phosphatidylserine: “nor inhibit LPS-stimulated GTPase activity” and “did not stimulate basal GTPase activity”.

Source of the values: patent publication EP0559845B1, “Use of compounds in preventing endotoxin shock” (priority 1991, dated 1992).
